# ± gives the expanded uncertainty stated by the source.
# How the values were obtained:
# [1] = 100 kPa, Liquid; for speed of sound: Frequency=3 MHz, Single path-length method; for mass density: Vibrating tube method
# [2] = xn = mol fraction of the nth substance listed; details: 100 kPa, Liquid, x2 = 0; for speed of sound: Frequency=3 MHz, Single path-length method; for mass density: Vibrating tube method
Structure (SMILES),speed of sound ([1]; 293.15 K),mass density ([1]; 293.15 K),speed of sound ([1]; 298.15 K),mass density ([1]; 298.15 K),speed of sound ([1]; 303.15 K),mass density ([1]; 303.15 K),speed of sound ([1]; 308.15 K),mass density ([1]; 308.15 K),speed of sound ([2]; 293.15 K),mass density ([2]; 293.15 K),speed of sound ([2]; 298.15 K),mass density ([2]; 298.15 K),speed of sound ([2]; 303.15 K),mass density ([2]; 303.15 K),speed of sound ([2]; 308.15 K),mass density ([2]; 308.15 K)
CCCCNCCCC [dibutylamine],1260.1 ± 6.3 m/s,759.579 ± 1.4 kg/m3,1240.1 ± 6.3 m/s,755.48 ± 1.4 kg/m3,1220.3 ± 6.3 m/s,751.374 ± 1.4 kg/m3,1200.6 ± 6.3 m/s,747.268 ± 1.4 kg/m3,,,,,,,,
CCCC(C)O (centres undefined) [pentan-2-ol],1250.3 ± 6.5 m/s,809.399 ± 1.5 kg/m3,1232.4 ± 6.5 m/s,805.37 ± 1.5 kg/m3,1214.1 ± 6.5 m/s,801.27 ± 1.5 kg/m3,1195.7 ± 6.5 m/s,797.08 ± 1.5 kg/m3,,,,,,,,
CCC(C)O (centres undefined) [butan-2-ol],1229.9 ± 6.2 m/s,806.952 ± 1.4 kg/m3,1212.1 ± 6.2 m/s,802.847 ± 1.4 kg/m3,1194.1 ± 6.2 m/s,798.651 ± 1.4 kg/m3,1176 ± 6.2 m/s,794.363 ± 1.4 kg/m3,,,,,,,,
CC(C)NC(C)C [diisopropylamine],1116.4 ± 6.3 m/s,717.305 ± 1.4 kg/m3,1093.8 ± 6.3 m/s,712.441 ± 1.4 kg/m3,1071.1 ± 6.3 m/s,707.55 ± 1.4 kg/m3,1043.5 ± 6.3 m/s,702.661 ± 1.4 kg/m3,,,,,,,,
CCCC(C)O (centres undefined) [pentan-2-ol] + CC(C)NC(C)C,,,,,,,,,1250.3 ± 6.5 m/s,809.399 ± 1.5 kg/m3,1232.4 ± 6.5 m/s,805.37 ± 1.5 kg/m3,1214.1 ± 6.5 m/s,801.27 ± 1.5 kg/m3,1195.7 ± 6.5 m/s,797.08 ± 1.5 kg/m3
CCCC(C)O (centres undefined) [pentan-2-ol] + CCCCNCCCC,,,,,,,,,1250.3 ± 6.5 m/s,809.399 ± 1.5 kg/m3,1232.4 ± 6.5 m/s,805.37 ± 1.5 kg/m3,1214.1 ± 6.5 m/s,801.27 ± 1.5 kg/m3,1195.7 ± 6.5 m/s,797.08 ± 1.5 kg/m3
CCC(C)O (centres undefined) [butan-2-ol] + CCCCNCCCC,,,,,,,,,1229.9 ± 6.2 m/s,806.952 ± 1.4 kg/m3,1212.1 ± 6.2 m/s,802.847 ± 1.4 kg/m3,1194.1 ± 6.2 m/s,798.651 ± 1.4 kg/m3,1176 ± 6.2 m/s,794.363 ± 1.4 kg/m3
CCC(C)O (centres undefined) [butan-2-ol] + CC(C)NC(C)C,,,,,,,,,1229.9 ± 6.2 m/s,806.952 ± 1.4 kg/m3,1212.1 ± 6.2 m/s,802.847 ± 1.4 kg/m3,1194.1 ± 6.2 m/s,798.651 ± 1.4 kg/m3,1176 ± 6.2 m/s,794.363 ± 1.4 kg/m3
